Tests used:
Assay type in all cases: in vivo
common ragweed [1] = experiment: Test Example 4: herbicidal effect in foliage treatment; conditions: three weeks after application
Outline: (§1)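 Doses are given in grams per are of applied compound, sprayed as water-diluted emulsifiable concentrate onto foliage of 14-day-old plants grown at 25 to 30° C. Herbicidal activity was assessed visually on a rating scale after three weeks.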

wild oat [2] = experiment: as above; conditions: three weeks after application
Outline: as §1

redroot pigweed [3] = experiment: as above; conditions: three weeks after application
Outline: as §1

Italian ryegrass [4] = experiment: as above; conditions: three weeks after application
Outline: as §1

barnyardgrass [5] = experiment: as above; conditions: three weeks after application
Outline: as §1

large crabgrass [6] = experiment: as above; conditions: three weeks after application
Outline: as §1

beadstraw = experiment: as above; conditions: three weeks after application
Outline: as §1

common lambsquater [7] = experiment: as above; conditions: three weeks after application
Outline: as §1

giant foxtail [8] = experiment: as above; conditions: three weeks after application
Outline: as §1

common chickweed [9] = experiment: as above; conditions: three weeks after application
Outline: as §1

water foxtail [10] = experiment: as above; conditions: three weeks after application
Outline: as §1

barnyardgrass [11] = experiment: Test Example 2: herbicidal effects during the vegetation period under submerged conditions; conditions: treatment during the vegetation period under submerged conditions; dose 2.52 g/a
Outline: (§2)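 Barnyardgrass, bulrush and ducksalad were co-sown in alluvial soil flooded to 4 cm and grown in a greenhouse at 25 to 30° C. At the 1- or 2-leaf stage, water-diluted emulsifiable concentrates went onto the water surface at set doses (g/a). Herbicidal effect was scored three weeks later on a graded scale.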

ducksalad [12] = experiment: as above; conditions: treatment during the vegetation period under submerged conditions; dose 2.52 g/a
Outline: as §2

bulrush [13] = experiment: as above; conditions: treatment during the vegetation period under submerged conditions; dose 2.52 g/a
Outline: as §2

barnyardgrass [14] = experiment: Test Example 1: herbicidal effects in preemergence treatment under submerged conditions; conditions: dose 2.52 g/a
Outline: (§3)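 Alluvial soil was flooded to 4 cm, sown with barnyardgrass, bulrush and ducksalad, and planted with 2.5-leaf rice seedlings. On the seeding day, water-diluted emulsifiable concentrates were applied to the water surface at set doses (g/a). After three weeks in a 25 to 30° C. greenhouse, mortality was scored 0–5.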

ducksalad [15] = experiment: as above; conditions: dose 2.52 g/a
Outline: as §3

bulrush [16] = experiment: as above; conditions: dose 2.52 g/a
Outline: as §3

transplanted rice = experiment: Test Example 1: preemergence treatment under submerged conditions, effect on crop; conditions: dose 2.52 g/a
Outline: as §3

common ragweed [17] = experiment: Test Example 3: herbicidal effects in soil treatment
Outline: (§4)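 Seeds were sown in sterilized diluvial soil and covered with about 1.5 cm of soil. Compounds, formulated as emulsifiable concentrates and diluted with water, were sprayed evenly over the soil surface at set doses in g/a. Herbicidal effect was scored on a rating scale three weeks later.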

wild oat [18] = experiment: as above
Outline: as §4

redroot pigweed [19] = experiment: as above
Outline: as §4

Italian ryegrass [20] = experiment: as above
Outline: as §4

barnyardgrass [21] = experiment: as above
Outline: as §4

large crabgrass [22] = experiment: as above
Outline: as §4

common lambsquater [23] = experiment: as above
Outline: as §4

giant foxtail [24] = experiment: as above
Outline: as §4

common chickweed [25] = experiment: as above
Outline: as §4

water foxtail [26] = experiment: as above
Outline: as §4

velvetleaf [27] = experiment: Test Example 4: herbicidal effect in foliage treatment; conditions: dose 3.2 g/a, three weeks after application
Outline: as §1

posumbu knotweed = experiment: as above; conditions: dose 3.2 g/a, three weeks after application
Outline: as §1

velvetleaf [28] = experiment: Test Example 3: herbicidal effects in soil treatment; conditions: dose 3.2 g/a
Outline: as §4

SMILES: CCOC(=O)N(c1ccccc1CN1COC(C)CC1=O)S(=O)(=O)C(F)(F)F (stereo not shown) [II-7]
- J: common ragweed, herbicidal effect (common ragweed [1]; dose 6.3 g/a): 5 (mortality of 90% or above (nearly complete death))
- F: wild oat, herbicidal effect (wild oat [2]; dose 6.3 g/a): 0 (mortality of less than 5% (almost ineffective))
- K: redroot pigweed, herbicidal effect (redroot pigweed [3]; dose 6.3 g/a): 0 (mortality of less than 5% (almost ineffective))
- H: Italian ryegrass, herbicidal effect (Italian ryegrass [4]; dose 6.3 g/a): 3 (mortality of at least 40% and less than 70%)
- A: barnyardgrass, herbicidal effect (barnyardgrass [5]; dose 6.3 g/a): 5 (mortality of 90% or above (nearly complete death))
- D: large crabgrass, herbicidal effect (large crabgrass [6]; dose 6.3 g/a): 5 (mortality of 90% or above (nearly complete death))
- O: beadstraw, herbicidal effect (beadstraw; dose 6.3 g/a): 3 (mortality of at least 40% and less than 70%)
- L: common lambsquater, herbicidal effect (common lambsquater [7]; dose 6.3 g/a): 5 (mortality of 90% or above (nearly complete death))
- E: giant foxtail, herbicidal effect (giant foxtail [8]; dose 6.3 g/a): 5 (mortality of 90% or above (nearly complete death))
- N: common chickweed, herbicidal effect (common chickweed [9]; dose 6.3 g/a): 2 (mortality of at least 20% and less than 40%)
- G: water foxtail, herbicidal effect (water foxtail [10]; dose 6.3 g/a): 5 (mortality of 90% or above (nearly complete death))
- A: barnyardgrass, herbicidal effect (evaluation scale 0-5) (barnyardgrass [11]): 5 (mortality of 90% or above (nearly complete death))
- C: ducksalad, herbicidal effect (evaluation scale 0-5) (ducksalad [12]): 4 (mortality of at least 70% and less than 90%)
- B: bulrush, herbicidal effect (evaluation scale 0-5) (bulrush [13]): 5 (mortality of 90% or above (nearly complete death))
- A: barnyardgrass, herbicidal effect (evaluation scale 0-5) (barnyardgrass [14]): 5 (mortality of 90% or above (nearly complete death))
- C: ducksalad, herbicidal effect (evaluation scale 0-5) (ducksalad [15]): 5 (mortality of 90% or above (nearly complete death))
- B: bulrush, herbicidal effect (evaluation scale 0-5) (bulrush [16]): 5 (mortality of 90% or above (nearly complete death))
- a: transplanted rice, effect on crop (evaluation scale 0-5) (transplanted rice): 0 (mortality of less than 5% (almost ineffective))
- J: common ragweed, herbicidal effect (evaluation scale 0-5) (common ragweed [17]; dose 6.3 g/a): 4 (mortality of at least 70% and less than 90%)
- F: wild oat, herbicidal effect (evaluation scale 0-5) (wild oat [18]; dose 6.3 g/a): 2 (mortality of at least 20% and less than 40%)
- K: redroot pigweed, herbicidal effect (evaluation scale 0-5) (redroot pigweed [19]; dose 6.3 g/a): 0 (mortality of less than 5% (almost ineffective))
- H: Italian ryegrass, herbicidal effect (evaluation scale 0-5) (Italian ryegrass [20]; dose 6.3 g/a): 2 (mortality of at least 20% and less than 40%)
- A: barnyardgrass, herbicidal effect (evaluation scale 0-5) (barnyardgrass [21]; dose 6.3 g/a): 5 (mortality of 90% or above (nearly complete death))
- D: large crabgrass, herbicidal effect (evaluation scale 0-5) (large crabgrass [22]; dose 6.3 g/a): 5 (mortality of 90% or above (nearly complete death))
- L: common lambsquater, herbicidal effect (evaluation scale 0-5) (common lambsquater [23]; dose 6.3 g/a): 5 (mortality of 90% or above (nearly complete death))
- E: giant foxtail, herbicidal effect (evaluation scale 0-5) (giant foxtail [24]; dose 6.3 g/a): 5 (mortality of 90% or above (nearly complete death))
- N: common chickweed, herbicidal effect (evaluation scale 0-5) (common chickweed [25]; dose 6.3 g/a): 4 (mortality of at least 70% and less than 90%)
- G: water foxtail, herbicidal effect (evaluation scale 0-5) (water foxtail [26]; dose 6.3 g/a): 5 (mortality of 90% or above (nearly complete death))

SMILES: CC1CN(Cc2ccccc2N(C(=O)OCCCl)S(=O)(=O)C(F)(F)F)C(=O)CO1 (stereo not shown) [Compound I-8]
- J: common ragweed, herbicidal effect (common ragweed [1]; dose 3.2 g/a): 5 (mortality of 90% or above (nearly complete death))
- F: wild oat, herbicidal effect (wild oat [2]; dose 3.2 g/a): 1 (mortality of at least 5% and less than 20%)
- K: redroot pigweed, herbicidal effect (redroot pigweed [3]; dose 3.2 g/a): 4 (mortality of at least 70% and less than 90%)
- H: Italian ryegrass, herbicidal effect (Italian ryegrass [4]; dose 3.2 g/a): 4 (mortality of at least 70% and less than 90%)
- A: barnyardgrass, herbicidal effect (barnyardgrass [5]; dose 3.2 g/a): 5 (mortality of 90% or above (nearly complete death))
- D: large crabgrass, herbicidal effect (large crabgrass [6]; dose 3.2 g/a): 4 (mortality of at least 70% and less than 90%)
- O: beadstraw, herbicidal effect (beadstraw; dose 3.2 g/a): 4 (mortality of at least 70% and less than 90%)
- L: common lambsquater, herbicidal effect (common lambsquater [7]; dose 3.2 g/a): 2 (mortality of at least 20% and less than 40%)
- E: giant foxtail, herbicidal effect (giant foxtail [8]; dose 3.2 g/a): 4 (mortality of at least 70% and less than 90%)
- N: common chickweed, herbicidal effect (common chickweed [9]; dose 3.2 g/a): 3 (mortality of at least 40% and less than 70%)
- G: water foxtail, herbicidal effect (water foxtail [10]; dose 3.2 g/a): 5 (mortality of 90% or above (nearly complete death))
- I: velvetleaf, herbicidal effect (velvetleaf [27]): 5 (mortality of 90% or above (nearly complete death))
- M: posumbu knotweed, herbicidal effect (posumbu knotweed): 5 (mortality of 90% or above (nearly complete death))
- A: barnyardgrass, herbicidal effect (evaluation scale 0-5) (barnyardgrass [11]): 5 (mortality of 90% or above (nearly complete death))
- C: ducksalad, herbicidal effect (evaluation scale 0-5) (ducksalad [12]): 5 (mortality of 90% or above (nearly complete death))
- B: bulrush, herbicidal effect (evaluation scale 0-5) (bulrush [13]): 5 (mortality of 90% or above (nearly complete death))
- A: barnyardgrass, herbicidal effect (evaluation scale 0-5) (barnyardgrass [14]): 5 (mortality of 90% or above (nearly complete death))
- C: ducksalad, herbicidal effect (evaluation scale 0-5) (ducksalad [15]): 5 (mortality of 90% or above (nearly complete death))
- B: bulrush, herbicidal effect (evaluation scale 0-5) (bulrush [16]): 5 (mortality of 90% or above (nearly complete death))
- J: common ragweed, herbicidal effect (evaluation scale 0-5) (common ragweed [17]; dose 3.2 g/a): 5 (mortality of 90% or above (nearly complete death))
- F: wild oat, herbicidal effect (evaluation scale 0-5) (wild oat [18]; dose 3.2 g/a): 1 (mortality of at least 5% and less than 20%)
- K: redroot pigweed, herbicidal effect (evaluation scale 0-5) (redroot pigweed [19]; dose 3.2 g/a): 5 (mortality of 90% or above (nearly complete death))
- H: Italian ryegrass, herbicidal effect (evaluation scale 0-5) (Italian ryegrass [20]; dose 3.2 g/a): 5 (mortality of 90% or above (nearly complete death))
- A: barnyardgrass, herbicidal effect (evaluation scale 0-5) (barnyardgrass [21]; dose 3.2 g/a): 5 (mortality of 90% or above (nearly complete death))
- D: large crabgrass, herbicidal effect (evaluation scale 0-5) (large crabgrass [22]; dose 3.2 g/a): 5 (mortality of 90% or above (nearly complete death))
- L: common lambsquater, herbicidal effect (evaluation scale 0-5) (common lambsquater [23]; dose 3.2 g/a): 3 (mortality of at least 40% and less than 70%)
- E: giant foxtail, herbicidal effect (evaluation scale 0-5) (giant foxtail [24]; dose 3.2 g/a): 4 (mortality of at least 70% and less than 90%)
- N: common chickweed, herbicidal effect (evaluation scale 0-5) (common chickweed [25]; dose 3.2 g/a): 5 (mortality of 90% or above (nearly complete death))
- G: water foxtail, herbicidal effect (evaluation scale 0-5) (water foxtail [26]; dose 3.2 g/a): 5 (mortality of 90% or above (nearly complete death))
- I: velvetleaf, herbicidal effect (evaluation scale 0-5) (velvetleaf [28]): 5 (mortality of 90% or above (nearly complete death))

Source: patent US20120029187A1, “HALOALKYLSULFONANILIDE DERIVATIVE” (Nissan Chemical Industries, Ltd., priority 2009, published 2012)
